Experimental findings from US20160052898A1, “NOVEL COMPOUNDS” (BAYER PHARMA AKTIENGESELLSCHAFT, priority 2013, published 2016) are described below.

Like-named read-outs stand apart in the source and are kept apart here.

The test system of test [1] is HCT116 FOP control reporter cell line. The test can be described thus: HCT116 FOP control vector reporter assay (non-functional TCF elements). The class given is cell-based. The note with it: HCT116 FOP control reporter cells, luciferase expression, 36 hours incubation, 50 μM to 15 nM, read-out: HCT116 FOPFlash IC50. The procedure, abridged:
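Stable HCT116 line carrying the non-functional FOP luciferase construct, 10000 cells/well plated 24 hrs before. Compounds 50 μM to 15 nM (3.16-fold steps) in CAFTY buffer pH 7.4 with 2 mM Ca2+, 36 hours at 37° C; luciferase luminescence read.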
(Reporter assays use an easily measured gene product as a stand-in for the process of interest.)

Test [2] relates to constitutive active colorectal cancer cell (CRC) Wnt pathway. Put plainly: HCT116 Super TopFlash cellular reporter assay (constitutive active Wnt pathway). The class given is cell-based. The note with it: HCT116 TOP reporter cells, luciferase expression, 36 hours incubation, 50 μM to 15 nM. The procedure, abridged: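 Luciferase luminescence served as the Wnt read-out after 36 h of compound treatment at 37 °C. Compound came from a pre-dilution series (50 μM down to 15 nM, 3.16-fold steps) in CAFTY buffer. Cells were stable HCT116 TOP reporter cells, with matched FOP-vector control cells tested in parallel, seeded a day earlier.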

In general, IC50 refers to the concentration that gives 50% inhibition. In the case of `COc1ccc(NC(=O)c2ccc(-c3ccc(O)cc3)cc2)cc1NC(=O)CN1CCOCC1` [Example 195, 4′-hydroxy-N-{4-methoxy-3-[(morpholin-4-ylacetyl)amino)phenyl} biphenyl-4-carboxamide], the IC50 in test [1] (Homo sapiens, HCT-116, 36 h) amounted to 39000 nM; in test [2] (Homo sapiens, HCT-116, 36 h), 975 nM.
For `COc1ccc(NC(=O)c2ccc(-c3cc(F)cc(F)c3)cc2F)cc1NC(=O)CN1CCOCC1` [Example 196, 3,3′,5′-trifluoro-N-{4-methoxy-3-[(morpholin-4-ylacetyl)amino]phenyl} biphenyl-4-carboxamide], the IC50 in test [1] (Homo sapiens, HCT-116, 36 h) turned out to be 13000 nM; in test [2] (Homo sapiens, HCT-116, 36 h), 1170 nM.
Consider `CC(C(=O)Nc1cc(NC(=O)c2ccc(-c3ccccc3)cc2)ccc1C(F)(F)F)N1CC2CCC(C1)O2` (stereo not drawn) [Example 197, N-[3-{[(2S*)-2-(8-oxa-3-azabicydo[3.2.1]oct-3-yl)propanoyl]amino}-4-(trifluoromethyl)phenyl) biphenyl-4-carboxamide], for which the IC50 was not below 50000 nM in test [1] and 1480 nM in test [2].
`COc1ccc(NC(=O)c2ccc(-c3ccc(N(C)C)cc3)cc2)cc1NC(=O)CN1CCOCC1` [Example 198, 4′-(dimethylamino)-N-{4-methoxy-3-[(morpholin-4-ylacetyl)amino]phenyl} biphenyl-4-carboxamide]: the IC50 is not below 50000 nM in test [1] (Homo sapiens, HCT-116, 36 h) and 1500 nM in test [2] (Homo sapiens, HCT-116, 36 h).
With `COc1ccc(NC(=O)c2ccc(-c3cc(F)cc(F)c3)cc2)cc1NC(=O)CN1CCOCC1` [Example 199, 3′,5′-difluoro-N-{4-methoxy-3-[(morpholin-4-ylacetyl)amino]phenyl} biphenyl-4-carboxamide], the IC50 in test [1] (Homo sapiens, HCT-116, 36 h) is not below 50000 nM; in test [2] (Homo sapiens, HCT-116, 36 h) it was 1750 nM.
On to `COCCc1noc(-c2ccc(C(=O)Nc3ccc(-c4ccccc4)cc3)cc2NC(=O)CN2CCOCC2)n1` [Example 200, N-(biphenyl-4-yl)-4-[3-(2-methoxyethyl)-1,2,4-oxadiazol-5-yl]-3-[(morpholin-4-ylacetyl)amino]benzamide], for which the IC50 was not below 50000 nM in test [1] (Homo sapiens, HCT-116, 36 h) and 1750 nM in test [2] (Homo sapiens, HCT-116, 36 h).
As to `COc1ccc(C(=O)Nc2ccc(-c3ccccc3)cc2)cc1NC(=O)CN1C[C@H]2C[C@@H]1CO2` [Example 201, N-(biphenyl-4-yl)-4-methoxy-3-{[(1R,4R)-2-oxa-5-azabicyclo[2.2.1]hept-5-ylacetyl)amino}benzamide], the IC50 in test [1] (Homo sapiens, HCT-116, 36 h) was not below 50000 nM; in test [2] (Homo sapiens, HCT-116, 36 h) it was 1900 nM.
For the compound `COc1ccc(C(=O)Nc2ccc(-c3ccccc3)cc2)cc1NC(=O)CN1CCC(OC)C1` (centres unmarked) [Example 202, N-(biphenyl-4-yl)-4-methoxy-3-{[(3-methoxypyrrolidin-1-yl)acetyl]amino}benzamide], the 50% inhibitory concentration (IC50) was not below 50000 nM in test [1] (Homo sapiens, HCT-116, 36 h) and 1900 nM in test [2] (Homo sapiens, HCT-116, 36 h).
As to `COc1ccc(NC(=O)c2ccc(-c3ccccc3)c(F)c2)cc1NC(=O)CN1CCOCC1` [Example 203, 2-fluoro-N-{4-methoxy-3-[(morpholin-4-ylacetyl)amino]phenyl} biphenyl-4-carboxamide], the IC50 in test [1] (Homo sapiens, HCT-116, 36 h) is not below 50000 nM; in test [2] (Homo sapiens, HCT-116, 36 h), 2020 nM.
On to `O=C(CN1CCOCC1)Nc1cc(C(=O)Nc2ccc(-c3ccccc3)cc2)ccc1CO` [Example 204, N-(biphenyl-4-yl)-4-(hydroxymethyl)-3-[(morpholin-4-ylacetyl)amino]benzamide], for which the IC50 was not below 50000 nM in test [1] (Homo sapiens, HCT-116, 36 h) and 2250 nM in test [2] (Homo sapiens, HCT-116, 36 h).
As for `COc1ccc(NC(=O)c2ccc(-c3ccccc3)cc2)cc1NC(=O)CN1C[C@H]2C[C@@H]1CO2` [Example 205, N-(4-methoxy-3-{[(1R,4R)-2-oxa-5-azabicyclo[2.2.1]hept-5-ylacetyl]amino}phenyl) biphenyl-4-carboxamide], the IC50 in test [1] (Homo sapiens, HCT-116, 36 h) is not below 50000 nM; in test [2] (Homo sapiens, HCT-116, 36 h) it was 2450 nM.
On to `COc1ccc(C(=O)Nc2ccc(-c3ccccc3)cc2)cc1NC(=O)C1(N2CCOCC2)CCC1` [Example 206, N-(biphenyl-4-yl)-4-methoxy-3-({[1-(morpholin-4-yl)cyclobutyl)carbonyl}amino)benzamide], for which the IC50 is not below 50000 nM in test [1] (Homo sapiens, HCT-116, 36 h) and 2480 nM in test [2] (Homo sapiens, HCT-116, 36 h).
For `COc1ccc(C(=O)Nc2ccc(-c3ccccc3)cc2)cc1NC(=O)CN1CC(OC)C1` [Example 207, N-(biphenyl-4-yl)-4-methoxy-3-{[(3-methoxyazetidin-1-yl)acetyl]amino}benzamide], in that order: not below 50000 nM and 2600 nM.
Take `COc1ccc(NC(=O)c2ccc(-c3ccc4c(c3)CCO4)cc2)cc1NC(=O)CN1CCOCC1` [Example 208, 4-(2,3-dihydro-1-benzofuran-5-yl)-N-{4-methoxy-3-[(morpholin-4-ylacetyl)amino]phenyl} benzamide]: the concentration for half-maximal inhibition (IC50) in test [1] (Homo sapiens, HCT-116, 36 h) is not below 50000 nM; in test [2] (Homo sapiens, HCT-116, 36 h), 3000 nM.
Take `COc1ccc(NC(=O)c2ccc(-c3cccc(N)c3)cc2)cc1NC(=O)CN1CCOCC1` [Example 209, 3′-amino-N-{4-methoxy-3-[(morpholin-4-ylacetyl)amino]phenyl} biphenyl-4-carboxamide]: the IC50 in test [1] (Homo sapiens, HCT-116, 36 h) was not below 50000 nM; in test [2] (Homo sapiens, HCT-116, 36 h) it was 3550 nM.
`COc1ccc(C(=O)Nc2ccc(-c3ccccc3)cc2)cc1N(C)C(=O)CN1CC2CCC(C1)O2` [Example 210, N-(biphenyl-4-yl)-4-methoxy-3-[methyl(8-oxa-3-azabicyclo[3.2.1]oct-3-ylacetyl)amino]benzamide]: the IC50 in test [1] (Homo sapiens, HCT-116, 36 h) was not below 50000 nM; in test [2] (Homo sapiens, HCT-116, 36 h), 3600 nM.
`NC(=O)COc1ccc(NC(=O)c2ccc(-c3ccccc3)cc2)cc1NC(=O)CN1CCOCC1` [Example 211, N-{4-(2-amino-2-oxoethoxy)-3-[(morpholin-4-ylacetyl)amino]phenyl} biphenyl-4-carboxamide]: the half-inhibitory concentration (IC50) in test [1] (Homo sapiens, HCT-116, 36 h) was not below 50000 nM; in test [2] (Homo sapiens, HCT-116, 36 h), 3900 nM.
As for `COc1ccc(NC(=O)c2ccc(-c3ccccc3)cc2)cc1NC(=O)CN1C[C@@H](C)O[C@@H](C)C1` [Example 212, N-[3-({[(2R,6S)-2,6-dimethylmorpholin-4-yl]acetyl}amino)-4-methoxyphenyl]biphenyl-4-carboxamide], the IC50 in test [1] (Homo sapiens, HCT-116, 36 h) was not below 50000 nM; in test [2] (Homo sapiens, HCT-116, 36 h), 4350 nM.
As to `COc1ccc(NC(=O)c2ccc(-c3ccccc3)cc2)cc1NC(=O)CN1CCOC[C@@H]1CCO` [Example 213, N-[3-({[(3S)-3-(2-hydroxyethyl)morpholin-4-yl]acetyl}amino)-4-methoxyphenyl]biphenyl-4-carboxamide], the 50% inhibitory concentration (IC50) in test [1] (Homo sapiens, HCT-116, 36 h) was not below 50000 nM; in test [2] (Homo sapiens, HCT-116, 36 h) it was 4600 nM.
The like results for `COc1ccc(NC(=O)c2ccc(-c3ccccc3)cc2)cc1NC(=O)CN1CCO[C@H](CO)C1` [Example 214, N-[3-({[(2S)-2-(hydroxymethyl)morpholin-4-yl]acetyl}amino)-4-methoxyphenyl]biphenyl-4-carboxamide] were, in that order, not below 50000 nM and 4900 nM.
For `COc1c(Cl)cc(C(=O)Nc2ccc(-c3ccccc3)cc2)cc1NC(=O)CN1CCN(C)CC1` [Example 215, N-(biphenyl-4-yl)-3-chloro-4-methoxy-5-{[(4-methylpiperazin-1-yl)acetyl]amino}benzamide], in that order: 18900 nM and 772 nM.
In the case of `COc1c(F)cc(C(=O)Nc2ccc(-c3ccccc3)cc2)cc1NC(=O)CN1CCN(C)CC1` [Example 216, N-(biphenyl-4-yl)-3-fluoro-4-methoxy-5-{[(4-methylpiperazin-1-yl)acetyl]amino}benzamide], the IC50 in test [1] (Homo sapiens, HCT-116, 36 h) came out at 6950 nM; in test [2] (Homo sapiens, HCT-116, 36 h), 524 nM.
In the case of `COCCOCCOc1ccc(C(=O)Nc2ccc(-c3ccccc3)cc2)cc1NC(=O)C1(N2CCOCC2)CC1` [Example 217, N-(biphenyl-4-yl)-4-[2-(2-methoxyethoxy}ethoxy)-3-({[1-(morpholin-4-yl)cyclopropyl]carbonyl}amino)benzamide], the IC50 in test [1] (Homo sapiens, HCT-116, 36 h) turned out to be 1630 nM; in test [2] (Homo sapiens, HCT-116, 36 h), 27 nM.
With `COCCOc1ccc(C(=O)Nc2ccc(-c3ccccc3)cc2)cc1NC(=O)C1(N2CCOCC2)CC1` [Example 218, N-(biphenyl-4-yl)-4-(2-methoxyethoxy)-3-({[1-(morpholin-4-yl)cyclopropyl]carbonyl)amino)benzamide], the half-maximal inhibitory concentration (IC50) in test [1] (Homo sapiens, HCT-116, 36 h) was not below 50000 nM; in test [2] (Homo sapiens, HCT-116, 36 h), 11 nM.
Take `O=C(CN1CCN(C2CC2)CC1)Nc1cc(C(=O)Nc2ccc(-c3ccccc3)cc2)ccc1OCC1CC1` [Example 219, N-(biphenyl-4-yl)-4-(cyclopropylmethoxy)-3-{[(4-cyclopropylpiperazin-1-yl)acetyl]amino}benzamide]: the IC50 was not below 50000 nM in test [1] (Homo sapiens, HCT-116, 36 h) and 65.5 nM in test [2] (Homo sapiens, HCT-116, 36 h).
Regarding `O=C(CN1CCOCC1)Nc1cc(C(=O)Nc2ccc(-c3ccccc3)cc2)ccc1OCC1CC1` [Example 220, N-(biphenyl-4-yl)-4-(cyclopropylmethoxy)-3-[(morpholin-4-ylacetyl)amino)benzamide], the IC50 was not below 50000 nM in test [1] (Homo sapiens, HCT-116, 36 h) and 160 nM in test [2] (Homo sapiens, HCT-116, 36 h).
For the compound `COCCOCCOc1ccc(C(=O)Nc2ccc(-c3ccc(C)cc3)cc2)cc1NC(=O)C1(N2CCOCC2)CC1` [Example 221, 4-[2-(2-methoxyethoxy)ethoxy]-N-(4′-methylbiphenyl-4-yl)-3-({[1-(morpholin-4-yl)cyclopropyl]carbonyl}amino)benzamide], the IC50 is not below 50000 nM in test [1] (Homo sapiens, HCT-116, 36 h) and 1100 nM in test [2] (Homo sapiens, HCT-116, 36 h).
For `CN1CCN(CC(=O)Nc2cc(C(=O)Nc3ccc(-c4ccccc4)cc3)ccc2OCC2CC2)CC1` [Example 222, N-(biphenyl-4-yl)-4-(cyclopropylmethoxy)-3-{[(4-methylpiperazin-1-yl)acetyl]amino}benzamide], the IC50 in test [1] (Homo sapiens, HCT-116, 36 h) was determined as 9000 nM; in test [2] (Homo sapiens, HCT-116, 36 h), 105 nM.
